Values joined by “and” are separate entries in the source; they are usually repeats but may differ in a detail not shown here. Equal entries are not always repeated. Structures can show the parent of a compound that is named as a salt. Where two headings read alike, the source gives them in different places.
Assays:
[1] = test system: M5076 murine reticulosarcoma cells; assay: In vitro antiproliferative activity (% cell growth vs untreated control); type: cell-based
Description: (§1) The combinations were assayed in vitro on M5076 murine reticulosarcoma cells and in vivo on the same tumor cells implanted intramuscularly.

[2] = days 1, 4, 7 and 11
Description: Mice C57BL/6 were implanted with M5076 murine reticulosarcoma cells. PNU 145156E was administered ip 2 h prior to cytotoxic drugs administered iv starting treatment 24 h after tumor implant. Treatments were performed at days 1, 4, 7 and 11.
The toxicological evaluation was performed in terms of body weight loss and spleen and liver reduction.

[3] = test system: M5076 murine reticulosarcoma cells; assay: In vivo antitumor activity in mice implanted with M5076 tumor cells; parameters: species or system Mice C57BL/6; conditions: days 1, 4, 7 and 11; for A.U.C. % inhib. (inhibition of tumor growth): one week after last treatment; for TGD (tumor growth delay): time to reach one gram
Description: as §1
The antitumor activity was calculated in terms of:
% AUC: inhibition of tumor growth
T/C %: percentage of median increase in survival time
The A.U.C. (area under the curve) of the tumor growth was calculated by using the trapezoidal method, and is referred to the measurement of tumor growth performed one week after the last treatment. The percentage of inhibition (% A.U.C.) was calculated using the following formula: [formula]
The percentage of increase in survival time (T/C% ) was calculated using the following formula: [formula]
Mice were monitored according to guidelines and sacrificed when tumor weight exceeded 10% body weight. Tumor growth delay (TGD) is the time, in days, to reach one gram of tumor weight in treated animals as compared to control animals.
Evaluation of statistical significance was performed as follows: Student's Test for cytotoxic activity, Two-Way Anova for increase in survival time (T/C %) with combined treatment in comparison to the increase exerted separately by the two drugs, Tukey Test for tumor weight reduction (AUC % inhibition) with combined treatment in comparison to the reduction exerted separately by the two drugs.
The criterion for statistical significance was the 0.01 level ( )

[4] = PNU 145156E alone 100 mg/kg ip, single-agent arm of each of Tables 2-6
[5] = VP-16 15 mg/kg iv, combination: + PNU 145156E 100 mg/kg ip 2 h prior

Row | Compound | activity at 50 µg/mL ([1]; Mus musculus, M5076, 72 h, PNU 145156E 50000 ng/ml alone (cytotoxic 0 ng/ml), 72 h, 37° C., read-out: % cell growth ± S.E.) [%] | % cell growth ± S.E. ([1]; PNU 145156E 50000 ng/ml alone (cytotoxic 0 ng/ml), 72 h, 37° C., 4320 min) | Toxic/total mice [2, 4] | T/C % (median increase in survival time) [3, 4] | Tumor weight [3, 4] | A.U.C. % inhib. (inhibition of tumor growth) [3, 4] | TGD (tumor growth delay) [3, 4] | activity at 0.004 µg/mL ([1]; Mus musculus, M5076, cytotoxic 4 ng/ml, PNU 145156E 0 ng/ml, 72 h, 37° C., read-out: % cell growth ± S.E.) [%] | activity at 0.02 µg/mL ([1]; Mus musculus, M5076, cytotoxic 20 ng/ml, PNU 145156E 0 ng/ml, 72 h, 37° C., read-out: % cell growth ± S.E.) [%] | activity at 0.1 µg/mL ([1]; Mus musculus, M5076, cytotoxic 100 ng/ml, PNU 145156E 0 ng/ml, 72 h, 37° C., read-out: % cell growth ± S.E.) [%] | % cell growth ± S.E. ([1]; cytotoxic 4 ng/ml + PNU 145156E 50000 ng/ml, 72 h, 37° C.) [%] | % cell growth ± S.E. ([1]; cytotoxic 20 ng/ml + PNU 145156E 50000 ng/ml, 72 h, 37° C.) [%] | % cell growth ± S.E. ([1]; cytotoxic 100 ng/ml + PNU 145156E 50000 ng/ml, 72 h, 37° C.) [%] | antiproliferative activity in the presence of PNU 145156E ([1]; in words, PNU 145156E 50000 ng/ml vs 0 ng/ml) | Toxic/total mice [2, 5] | T/C % (median increase in survival time) [3, 5] [%] | Tumor weight [3, 5] [gr] | A.U.C. % inhib. (inhibition of tumor growth) [3, 5] [%] | TGD (tumor growth delay) [3, 5] [days]
1 | Cn1cc(NC(=O)Nc2cc(C(=O)Nc3cc(C(=O)Nc4ccc5cc(S(=O)(=O)O)cc(S(=O)(=O)O)c5c4)n(C)c3)n(C)c2)cc1C(=O)Nc1cc(C(=O)Nc2ccc3cc(S(=O)(=O)O)cc(S(=O)(=O)O)c3c2)n(C)c1 [PNU 145156E, 7'-(carbonyl-bis(imino-N-methyl-4,2-pyrrolecarbonyl-imino(N-methyl-4,2-pyrrole)carbonylimino))bis(1,3-naphtalen-disulfonic acid)tetrasodium salt] | 85 | 88 ± 3% and 92 ± 5% and 92 ± 14% and 89 ± 19% | 0/10 and 0/9 and 0/8 | 121% and 141% and 148% | 1.45 ± 0.7 gr and 2.63 ± 0.8 gr and 1.4 ± 0.7 gr and 1.7 ± 0.65 gr | 88% and 85% and 90% and 75% | 9 days and 10 days and 16 days |  |  |  |  |  |  |  |  |  |  |  | 
2 | COc1cc([C@@H]2c3cc4c(cc3[C@@H](O[C@@H]3O[C@@H]5CO[C@@H](C)O[C@H]5[C@H](O)[C@H]3O)[C@H]3COC(=O)[C@H]23)OCO4)cc(OC)c1O [VP-16, etoposide] |  |  |  |  |  |  |  | 96 ± 8 | 77 ± 5 | 15 ± 7 | 91 ± 2 | 66 ± 8 | 9 ± 4 | unchanged in the presence of PNU 145156E | 0/9 | 130 | 2.86 ± 0.8 | 90 | 12

— US6214860A, “Synergistic antitumor composition containing a naphthalensulphonic acid derivative” (Pharmacia & Upjohn S.p.A., priority 1997, dated 2001)
